# Test results: PubChem BioAssay (NCI)
#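 Values below derive from 48-hour exposures of cells grown in 96-well plates, with endpoints linearly interpolated between the two concentrations bracketing the appropriate inhibition level. Abbreviation: GI50, concentration required for 50% inhibition of growth. TGI: concentration producing complete growth inhibition.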
# Assays:
# Experiment in all cases: DTP human tumour cell line panel, 48 h
# OVCAR-5 ovarian = system: OVCAR-5 ovarian
# OVCAR-3 ovarian = system: OVCAR-3 ovarian
# IGROV1 ovarian = system: IGROV1 ovarian
# M14 melanoma = system: M14 melanoma
# SF-295 CNS = system: SF-295 CNS
# PC-3 prostate = system: PC-3 prostate
# OVCAR-8 ovarian = system: OVCAR-8 ovarian
# DU-145 prostate = system: DU-145 prostate
# A498 renal = system: A498 renal
# HCC-2998 colon = system: HCC-2998 colon
SMILES,GI50 (OVCAR-5 ovarian) [µM],TGI (OVCAR-5 ovarian) [µM],GI50 (OVCAR-3 ovarian) [µM],TGI (OVCAR-3 ovarian) [µM],GI50 (IGROV1 ovarian) [µM],TGI (IGROV1 ovarian) [µM],GI50 (M14 melanoma) [µM],TGI (M14 melanoma) [µM],GI50 (SF-295 CNS) [µM],TGI (SF-295 CNS) [µM],GI50 (PC-3 prostate) [µM],TGI (PC-3 prostate) [µM],GI50 (OVCAR-8 ovarian) [µM],TGI (OVCAR-8 ovarian) [µM],GI50 (DU-145 prostate) [µM],TGI (DU-145 prostate) [µM],GI50 (A498 renal) [µM],TGI (A498 renal) [µM],GI50 (HCC-2998 colon) [µM],TGI (HCC-2998 colon) [µM]
CCn1c(-c2nonc2N)nc2ccc(F)cc21,> 25,> 25,> 25,> 25,> 25,> 25,> 25,> 25,> 25,> 25,> 25,> 25,> 25,> 25,> 25,> 25,13.6,> 25,> 25,> 25
COc1cc(/C=C2\CC3C4CC=C5CC(N6CCCC6)CC[C@]5(C)C4CC[C@]3(C)C2OC(C)=O)ccc1OCCN1CCCC1 (stereo not given in full),3.01,7.09,0.304,2,1.8,3.63,1.89,3.41,12.7,26.5,3.45,10.2,,,3.52,> 100,1.52,3.26,,
Cc1ccc2/c(=C/c3ccc(N(C)C)cc3)c3cc(-c4ccccc4)[n+](C)n3c2c1,0.456,4.74,1.1,47.5,0.501,,0.0591,2.54,0.352,3.31,0.0251,3.9,,,0.0473,4.37,,,< 0.0199,0.197
CNC(=O)c1cn(C[C@H](F)CCc2ccc(NC(=O)Cc3cc(OC4CC(F)(F)C4)cc(C)n3)nn2)nn1,> 100,> 100,,,> 100,> 100,> 100,> 100,> 100,> 100,> 100,> 100,> 100,> 100,> 100,> 100,0.0854,1.27,> 100,> 100
CCCNCc1cc(C)cc2c1nc(N1CCNCC1)n2Cc1cc(C)c(F)c(C)c1,7.58,22.3,3.71,13.5,10.3,25.1,1.86,3.47,1.79,3.57,2.49,7.66,3.9,13.8,6.15,19.6,,,1.83,3.47
Cc1sc(C)c(-c2ccc(CO)o2)c1-c1ccc(CO)o1,,,0.183,0.706,0.077,0.472,70.9,> 100,0.276,> 100,32.7,> 100,75.4,> 100,> 100,> 100,0.0205,0.0973,> 83.9,> 100
Clc1ccc(OCc2nnc3n2N=C(c2ccc(Cl)cc2Cl)CS3)c(Cl)c1,31.4,> 100,21.2,73.1,20,52.9,22.7,51,23.9,79.7,29.5,> 100,27.7,66.2,33.6,> 100,,,20.3,37.2
COC(=O)NC/C=C\c1nc(CC/C=C\C(=O)OC2CC3CC(=O)O[C@@H](/C=C/CC(C)C)C[C@@H]4CCC(C)C(C[C@@H](OC)CC(C2)O3)O4)co1 (stereo not given in full),< 0.01,> 100,,,,,7.36,> 100,< 0.01,73.8,< 0.01,> 100,53,> 100,4.59,> 100,,,< 0.01,19
CN(C)CCNC(=O)Nc1c(C#N)[n+]([O-])c2cc(Cl)c(Cl)cc2[n+]1[O-],87.1,> 100,21.4,57,,,21.9,> 100,15,84.8,18.4,> 100,21.4,> 100,25.4,> 100,51.6,> 100,27.4,> 100
NC(N)=N/N=C/c1c(-c2ccccn2)nc2sc(Cl)cn12,6.3,12.6,7.55,14.3,6.21,13.7,7.6,15.9,6.93,13.4,10.9,22,6.32,13.5,7.68,14.4,,,,
Cn1c(N)nc2c(nc(OCc3ccccc3)n2C2OC(CO)C(O)C2O)c1=O (stereo not given),,> 100,,> 100,,> 100,,> 100,,> 100,,> 100,,> 100,,> 100,,> 100,,
COc1ccc2c(c1)C=CC(C#N)N2C(=O)c1ccccc1 (stereo not given),,> 100,< 0.01,,,> 100,,,< 0.01,> 100,< 0.01,> 100,< 0.01,> 100,< 0.01,> 100,< 0.01,0.0825,0.0129,> 100
CNC(=O)c1ccc(-c2cnc3ncc(Cc4ccc5ncccc5c4)n3n2)cc1F,> 100,> 100,> 100,> 100,> 100,> 100,,,22.1,> 100,> 100,> 100,52.4,> 100,> 100,> 100,> 100,> 100,> 100,> 100
CCCS(=O)(=O)c1nc(NC2CC2)cc(-c2ccc3c(ccn3C3CC(C)(C)NC(C)(C)C3)c2)n1,,,1.84,3.42,1.97,3.81,1.74,3.24,1.82,3.47,1.78,3.47,,,1.71,3.19,1.81,3.37,,
Cc1ccc(C(=O)CC(Sc2cccc(Cl)c2Cl)c2ccc(Cl)cc2)cc1C (stereo not given),22.4,59.8,15.4,31.1,19.7,41.2,26.7,65.1,16.9,37.2,15.8,29.2,24.6,74,16.1,34.9,19.2,46.8,,
CCN(CCO)CCNc1ccc(C)c2sc3cc(Cl)ccc3c(=O)c12,1.59,3.3,1.72,4.13,1.64,3.39,1.64,3.23,1.61,3.19,1.34,2.94,1.78,3.38,1.57,2.94,,,1.51,3.14

SMILES,GI50 (OVCAR-5 ovarian) [µM],TGI (OVCAR-5 ovarian) [µM],GI50 (OVCAR-3 ovarian) [µM],TGI (OVCAR-3 ovarian) [µM],GI50 (IGROV1 ovarian) [µM],TGI (IGROV1 ovarian) [µM],GI50 (M14 melanoma) [µM],TGI (M14 melanoma) [µM],GI50 (SF-295 CNS) [µM],TGI (SF-295 CNS) [µM],GI50 (PC-3 prostate) [µM],TGI (PC-3 prostate) [µM],GI50 (OVCAR-8 ovarian) [µM],TGI (OVCAR-8 ovarian) [µM],GI50 (DU-145 prostate) [µM],TGI (DU-145 prostate) [µM],GI50 (A498 renal) [µM],TGI (A498 renal) [µM],GI50 (HCC-2998 colon) [µM],TGI (HCC-2998 colon) [µM]
COc1ccc(-c2cc(-c3cc(Cl)ccc3Cl)nc3nc(=S)[nH]c(N)c23)cc1,20.1,51.4,45.1,> 100,9.34,> 100,24,45,17.1,46.5,24.8,> 100,,,48.8,> 100,,,23.1,40.1
CNC(=O)c1cc(Oc2ccc(NC(=O)Nc3ccc(Cl)c(OC(F)(F)F)c3)c(F)c2)ccn1,3.93,> 33.2,1.78,11,2.3,16.6,1.02,5.38,1.1,5.25,1.48,19,,,4.24,> 33.2,2.66,11.4,1.62,7.08
Oc1c2c(c(O)c3ccccc13)=N[C@@H](c1ccccc1)[C@H](c1ccccc1)N=2,,> 100,,> 100,,> 100,,> 100,,> 100,,,,> 100,,,,> 100,,> 100
O=C(N/N=C/c1ccc(Cl)cc1Cl)c1ccccc1Nc1cccc(C(F)(F)F)c1,24.3,> 100,2.85,8.03,,,5.51,35.3,2.55,8.8,2.4,8.82,2.47,5.99,4.08,38.7,14.9,52.4,8.52,> 100
C=C1CC(COc2cc(Cl)nc(N)n2)C1,66.9,,28.6,,84.1,,,,34.4,,,,43.7,,47.7,,28.4,96.8,,
CN(C)c1nc(-c2cccs2)n2nc(-c3ccc(Cl)cc3)cc2n1,> 100,> 100,,,5.28,> 100,,,2.49,> 100,,,3.59,> 100,> 100,> 100,,,> 100,> 100
CC(C)(C)C1(O)Cc2ccccc2C(=O)O1 (stereo not given),,> 100,,> 100,,> 100,,> 100,,> 100,,,,> 100,,,,> 100,,> 100
O=C(Nc1ccc(S(=O)(=O)N[C@@H](C(=O)O)c2ccccc2)cc1)c1ccc(F)cc1,,> 100,,> 100,,> 100,,> 100,,> 100,,,,> 100,,,,> 100,,> 100
CC1=Nc2c(ccc3c2C(=O)c2ccccc2C3=O)NC(c2ccncc2)C1 (stereo not given),,> 100,> 100,> 100,,> 100,> 100,> 100,> 100,> 100,,,> 100,> 100,,,,> 100,> 100,> 100
O=C1c2ccccc2-c2c1c1ccccc1c(=O)n2CCNCCCNCCn1c2c(c3ccccc3c1=O)C(=O)c1ccccc1-2,0.42,1.1,0.362,1.12,1.19,> 50,0.257,0.536,0.00771,0.368,0.293,1.24,0.0101,0.361,0.0736,0.739,0.432,3.33,,
COc1cc(/C=C\c2ccc(O)cc2)cc(OC)c1OC,,> 100,,6.24,,> 100,,> 100,,5.48,,,,> 100,,,,> 100,,> 79
CCOC(=O)[C@@H](C)C[C@H](Cc1ccccc1)NC(=O)c1csc([C@@H](C[C@H](C(C)C)N(C)C(=O)[C@@H](NC(=O)[C@H]2CCCCN2C)C(C)(C)C)OC(C)=O)n1,< 0.00167,> 16.7,< 0.00167,0.00352,< 0.00167,> 16.7,< 0.00167,0.0294,< 0.00167,0.0918,< 0.00167,> 16.7,< 0.00167,> 16.7,,,< 0.00167,< 0.00167,< 0.00167,
Oc1c(Br)cc(CN(Cc2cc(Br)c(O)c(Br)c2)C2CCCCC2)cc1Br,,> 100,,> 100,,> 100,,> 100,,> 100,,> 100,,> 100,,> 100,,> 100,,
Cc1ncc(NC(=O)c2ccc(CN3CCN(C)CC3)c(C(F)(F)F)c2)cc1Nc1nccc(-c2cccnc2)n1,15.8,29.7,,,10.7,24.4,10.2,22.7,16.2,30,16.9,32.9,16.8,31.6,16.7,30.4,20.1,34.9,13.4,26.6
CC1(C)CCc2cc3c(cc2O1)OCCC3=O,,> 100,,> 100,,> 100,,> 100,,> 100,,,,> 100,,,,> 100,,> 100
